assay: Inhibition of alpha-crystallin B R120G mutant (unknown origin)-induced intracellular protein aggregation expressed in human HeLa cells or HLE-B3 cells incubated for 6 to 8 hrs by fluorescence microscopy relative to untreated control

`C[C@H](CCCC(C)(C)O)[C@H]1CC[C@@]2(C)C3=C(CC[C@]12C)[C@@]1(C)C[C@@H](F)[C@@H](O)C(C)(C)[C@@H]1CC3` and `C[C@H](CCCC(C)(C)O)[C@H]1CC[C@@]2(C)C3=C(CC[C@]12C)[C@@]1(C)C[C@@H](F)[C@H](O)C(C)(C)[C@@H]1CC3` are within 1.5-fold of each other in EC50: 26 nM for the first, 18 nM for the second.

`C[C@H](CCCC(C)(C)O)[C@H]1CC[C@@]2(C)C3=CC[C@H]4C(C)(C)[C@@H](O)CC[C@]4(C)C3=CC[C@]12C` and `C[C@H](CCCC(C)(C)O)[C@H]1CC[C@@]2(C)C3=C(CC[C@]12C)[C@@]1(C)CC[C@H](O)C(C)(C)[C@@H]1CC3` are within 1.5-fold of each other in EC50: 64 nM for the first, 57 nM for the second.

Compared with `CC(C)=CCC[C@@H](C)[C@H]1CC[C@@]2(C)C3=C(CC[C@]12C)[C@@]1(C)CC[C@H](O)C(C)(C)[C@@H]1CC3` [LANOSTEROL], `C[C@H](CCCC(C)(C)O)[C@H]1CC[C@@]2(C)C3=C(CC[C@]12C)[C@@]1(C)CCC(=O)C(C)(C)[C@@H]1CC3` is 13-fold lower in EC50: 1420 nM for the first, 106 nM for the second. The second is the more potent here.

With `C[C@H](CCCC(C)(C)O)[C@H]1CC[C@H]2[C@@H]3CC=C4C[C@@H](O)CC[C@]4(C)[C@H]3CC[C@]12C` [(1S,2R,5S,10S,11S,14R,15R)-14-[(2R)-6-hydroxy-6-methylheptan-2-yl]-2,15-dimethyltetracyclo[8.7.0.0^{2,7}.0^{11,15}]heptadec-7-en-5-ol] the EC50 was 320 nM.
